From patent US20150105252A1, “SUBSTITUTED PYRAZOLES AS HERBICIDES” (E I DU PONT DE NEMOURS AND COMPANY, priority 2013, published 2015)

Key:
barnyardgrass [1] = experiment: Test B flood; type: in vivo, Echinochloa crus-galli; details: 250 g ai/ha, visual rating on 0 to 100 scale (0 no effect, 100 complete control), 13 to 15 days
Outline: (§1)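 Plants were grown to the 2-leaf stage, then pots were flooded to 3 cm above the soil and compounds were applied directly into the paddy water. Water depth was held for the whole test; after 13 to 15 days in a greenhouse, injury was visually rated against untreated controls (0 = no effect, 100 = complete control).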

barnyardgrass [2] = experiment: Test A preemergence; type: in vivo, Echinochloa crus-galli; details: preemergence; for Barnyardgrass plant response rating (0 to 100 scale, 0 is no effect, 100 is complete control): 125 g ai/ha, visual injury approx. 10 days after treatment; for Barnyardgrass plant response rating: 500 g ai/ha, 0 to 100 scale (0 no effect, 100 complete control)
Outline: (§2)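 Scoring was visual, on a scale where 100 means complete control and 0 means no effect, comparing treated with untreated plants around 10 days post-application. Compounds in surfactant-containing non-phytotoxic solvent were sprayed onto soil preemergence or onto one- to two-leaf seedlings (2–10 cm) postemergence.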

corn [3] = experiment: Test A preemergence; type: in vivo, Zea mays; details: preemergence; for Corn plant response rating (0 to 100 scale): 125 g ai/ha, visual injury approx. 10 days after treatment; for Corn plant response rating: 500 g ai/ha
Outline: as §2

corn [4] = experiment: Test A postemergence; type: in vivo, Zea mays; details: Postemergence
Outline: as §2

ducksalad = experiment: Test B flood; type: in vivo, Heteranthera limosa; details: 250 g ai/ha, visual rating on 0 to 100 scale (0 no effect, 100 complete control), 13 to 15 days
Outline: as §1

velvetleaf [5] = experiment: Test A preemergence; type: in vivo, Abutilon theophrasti; details: preemergence; for Velvetleaf plant response rating (0 to 100 scale): 125 g ai/ha, visual injury approx. 10 days after treatment
Outline: as §2

crabgrass, large [6] = experiment: Test A postemergence; type: in vivo, Digitaria sanguinalis; details: Postemergence
Outline: as §2

wheat [7] = experiment: Test A preemergence; type: in vivo, Triticum aestivum; details: preemergence; for Wheat plant response rating (0 to 100 scale): 125 g ai/ha, visual injury approx. 10 days after treatment
Outline: as §2

foxtail, giant [8] = experiment: Test A postemergence; type: in vivo, Setaria faberii; details: Postemergence
Outline: as §2

pigweed [9] = experiment: Test A postemergence; type: in vivo, Amaranthus retroflexus; details: Postemergence
Outline: as §2

rice = experiment: Test B flood; type: in vivo, Oryza sativa; details: 250 g ai/ha, visual rating on 0 to 100 scale (0 no effect, 100 complete control), 13 to 15 days
Outline: as §1

wheat [10] = experiment: Test A postemergence; type: in vivo, Triticum aestivum; details: Postemergence
Outline: as §2

foxtail, giant [11] = experiment: Test A preemergence; type: in vivo, Setaria faberii; details: preemergence; for Foxtail, Giant plant response rating (0 to 100 scale): 125 g ai/ha, visual injury approx. 10 days after treatment; for Foxtail, Giant plant response rating: 500 g ai/ha
Outline: as §2

velvetleaf [12] = experiment: Test A postemergence; type: in vivo, Abutilon theophrasti; details: Postemergence
Outline: as §2

morningglory [13] = experiment: Test A postemergence; type: in vivo, Ipomoea spp.; details: Postemergence
Outline: as §2

crabgrass, large [14] = experiment: Test A preemergence; type: in vivo, Digitaria sanguinalis; details: preemergence; for Crabgrass, Large plant response rating (0 to 100 scale): 125 g ai/ha, visual injury approx. 10 days after treatment; for Crabgrass, Large plant response rating: 500 g ai/ha
Outline: as §2

sedge, umbrella = experiment: Test B flood; type: in vivo, Cyperus difformis; details: 250 g ai/ha, visual rating on 0 to 100 scale (0 no effect, 100 complete control), 13 to 15 days
Outline: as §1

barnyardgrass [15] = experiment: Test A postemergence; type: in vivo, Echinochloa crus-galli; details: Postemergence
Outline: as §2

pigweed [16] = experiment: Test A preemergence; type: in vivo, Amaranthus retroflexus; details: preemergence; for Pigweed plant response rating (0 to 100 scale): 125 g ai/ha, visual injury approx. 10 days after treatment
Outline: as §2

morningglory [17] = experiment: Test A preemergence; type: in vivo, Ipomoea spp.; details: preemergence; for Morningglory plant response rating (0 to 100 scale): 125 g ai/ha, visual injury approx. 10 days after treatment
Outline: as §2

[18] = visual injury after approx. 10 days, 0 to 100 scale (0 no effect, 100 complete control)
[19] = 125 g ai/ha, 0 to 100 scale, 0 no effect, 100 complete control
[20] = 500 g ai/ha, 0 to 100 scale (0 no effect, 100 complete control)
[21] = visual injury, 0 to 100 scale, approx. 10 days
[22] = 500 g ai/ha, visual injury, 0 to 100 scale, approx. 10 days

SMILES | Plant response rating, Barnyardgrass (barnyardgrass [1]) | Barnyardgrass plant response rating (0 to 100 scale, 0 is no effect, 100 is complete control) (barnyardgrass [2]) | Corn plant response rating (0 to 100 scale) (corn [3]) | Corn plant response rating (corn [4]; [19]) | Corn plant response rating (corn [4]; [20]) | Plant response rating, Ducksalad (ducksalad) | Velvetleaf plant response rating (0 to 100 scale) (velvetleaf [5]) | Crabgrass, Large plant response rating (crabgrass, large [6]; [19]) | Crabgrass, Large plant response rating (crabgrass, large [6]; [20]) | Wheat plant response rating (0 to 100 scale) (wheat [7]) | Foxtail, Giant plant response rating (foxtail, giant [8]; [19]) | Foxtail, Giant plant response rating (foxtail, giant [8]; [20]) | Pigweed plant response rating (pigweed [9]; [19]) | Pigweed plant response rating (pigweed [9]; [20]) | Plant response rating, Rice (rice) | Wheat plant response rating (wheat [10]; [19]) | Wheat plant response rating (wheat [10]; [20]) | Foxtail, Giant plant response rating (0 to 100 scale) (foxtail, giant [11]) | Velvetleaf plant response rating (velvetleaf [12]; [19]) | Velvetleaf plant response rating (velvetleaf [12]; [20]) | further results
CCCNC(=O)c1cc(CC)n(Cc2cc(C(F)(F)C(F)(F)F)nn2C)n1 [Compound 229] | 60 | 50 | 10 | 40 | 70 | 100 | 40 | 50 | 90 | 20 | 60 | 90 | 90 | 100 | 40 | 40 | 70 | 90 | 50 | 80 | Barnyardgrass plant response rating (barnyardgrass [2]; visual injury after approx. 10 days): 100; Corn plant response rating (corn [3]; [18]): 50; Foxtail, Giant plant response rating (foxtail, giant [11]; [18]): 100; Morningglory plant response rating (morningglory [13]; [19]): 70; Morningglory plant response rating (morningglory [13]; [20]): 100; Crabgrass, Large plant response rating (0 to 100 scale) (crabgrass, large [14]): 100; Crabgrass, Large plant response rating (crabgrass, large [14]; [18]): 100; Plant response rating, Sedge, Umbrella (sedge, umbrella): 95; Barnyardgrass plant response rating (barnyardgrass [15]; [19]): 50; Barnyardgrass plant response rating (barnyardgrass [15]; [20]): 90; Pigweed plant response rating (0 to 100 scale) (pigweed [16]): 100; Morningglory plant response rating (0 to 100 scale) (morningglory [17]): 50
CCONC(=O)c1cc(C)n(Cc2ccnc(C(F)(F)F)c2)n1 [Compound 231] | 0 | 0 | 0 | 0 | 10 | 0 | 0 | 0 | 10 | 0 | 0 | 0 | 0 | 0 | 0 | 0 | 0 | 0 | 0 | 0 | Barnyardgrass plant response rating (barnyardgrass [2]; visual injury, approx. 10 days): 0; Corn plant response rating (corn [3]; [21]): 0; Velvetleaf plant response rating (velvetleaf [5]; [22]): 0; Wheat plant response rating (wheat [7]; [22]): 0; Foxtail, Giant plant response rating (foxtail, giant [11]; [21]): 0; Morningglory plant response rating (morningglory [13]; [19]): 0; Morningglory plant response rating (morningglory [13]; [20]): 0; Crabgrass, Large plant response rating (0 to 100 scale) (crabgrass, large [14]): 0; Crabgrass, Large plant response rating (crabgrass, large [14]; [21]): 0; Plant response rating, Sedge, Umbrella (sedge, umbrella): 0; Barnyardgrass plant response rating (barnyardgrass [15]; [19]): 0; Barnyardgrass plant response rating (barnyardgrass [15]; [20]): 0; Pigweed plant response rating (0 to 100 scale) (pigweed [16]): 0; Pigweed plant response rating (pigweed [16]; [22]): 0; Morningglory plant response rating (0 to 100 scale) (morningglory [17]): 0; Morningglory plant response rating (morningglory [17]; [22]): 0
